Read-outs that look alike come from different tables or passages of the source.
What was measured:
Escherichia coli = conditions: for % survival at 1 min: nisin 100 μg/ml and/or EDTA 1.0 mM
Protocol: The rapid activities of various chelator-enhanced nisin formulations were evaluated in acid vehicles in a germicidal suspension assay.
E. coli cells from an overnight Trypticase soy nutrient agar (TSA) were resuspended to a density measured as an absorbance of 1.0 at 600 nm in sterile ddH2 O. The reaction of the cells with each of the bactericidal test formulations analyzed is started by addition of 30 μl of cells to 970 μl of test formulation. The reaction mixture was incubated at 37° C. for at least 1 minute and then centrifuged in a microfuge for 1 minute. The cell pellet was washed by resuspension in 1 ml of neutralization buffer. (The neutralization buffer: 50 mM Tris-HCl, pH 7.0, 5 mM MgSO4, 20 mM CaCl2, 0.1 M NaCl and 0.1% gelatin was prepared by first making Tris buffer and adjusting the pH. The salts and gelatin were then added and the solution stirred with heat until the solution was clear. The solution was then autoclaved for 20 min. The neutralization buffer was used without dilution.) The cells were centrifuged in a microfuge for 1 minute and resuspended in 1 ml of neutralization buffer. The viable count was determined by spreading 100 μl of bacterial suspension and serial dilutions thereof in neutralization buffer on nutrient agar and scoring surviving colonies after 24 h at 37° C. Percent survival relative to untreated controls was calculated from the scored values.

E. coli strain ATCC8739 = experiment: nisin-citrate agar growth inhibition assay; type: cell-based; conditions: Trypticase Soy Agar
Protocol: However, nisin in the presence of citrate is active against gram negative bacteria. […] This nisin-citrate agar assay has much more general applicability. The assay provides a method for screening potential agents other than citrate in combination with nisin for their potential properties as enhancers of nisin's inherent bactericidal activity.
E. coli is resuspended to an optical density of 1.0 at A600. A 100 μl sample of the bacterial suspension is spread uniformly on Trypticase Soy nutrient agar (TSA) supplemented with various concentrations of citrate (eg. 0.1%, 0.3%, 1.0%, 3.0%) and incubated for 1 hour at 37° C. A nisin stock solution and serial dilutions thereof in 0.1% bovine serum albumin (BSA), are prepared and 5 μl are taken from each and deposited onto the growing bacterial lawn. The TSA plates are then incubated for 24 hours at 37° C. After 24 hours at 37° C., E. coli grown on TSA supplemented with citrate form a confluent lawn. […] The effectiveness of nisin against the gram negative bacteria can be assessed from determining the minimum amount of nisin required to produce a clear zone of growth inhibition. As the concentration of citrate in the nutrient agar is increased, less nisin is required to inhibit the growth of E. coli, as is illustrated by the data shown in Table 6.

[1] = 0.1% w/v acetate pH 3.5, 37° C.
[2] = 0.1% w/v citrate pH 3.5, 37° C.
[3] = 0.1% w/v lactate pH 3.5, 37° C.
[4] = 0.3% w/v acetate pH 3.5, 37° C.
[5] = 0.3% w/v citrate pH 3.5, 37° C.
[6] = 0.3% w/v lactate pH 3.5, 37° C.
[7] = 1.0% w/v acetate pH 3.5, 37° C.
[8] = 1.0% w/v citrate pH 3.5, 37° C.
[9] = 3.0% w/v citrate pH 3.5, 37° C.
[10] = pH 2.0, 20 mM Na acetate buffer, 37° C., initial count 4 × 10^7 cfu/ml

Q: How did the “% survival at 1 min” value (Escherichia coli; [1]) turn out when `O=C(O)CN(CCN(CC(=O)O)CC(=O)O)CC(=O)O` [EDTA] was run?
A: 40%

Q: And the “% survival at 1 min” value (Escherichia coli; [2])?
A: 100%

Q: What about the “% survival at 1 min” value (Escherichia coli; [3]) of the same compound?
A: 5.1%

Q: And the “% survival at 1 min” value (Escherichia coli; [4])?
A: 25%

Q: And the “% survival at 1 min” value (Escherichia coli; [5])?
A: 50.0%

Q: What about the “% survival at 1 min” value (Escherichia coli; [6]) of the same compound?
A: 0.46%

Q: And the “% survival at 1 min” value (Escherichia coli; [7])?
A: 25%

Q: What about the “% survival at 1 min” value (Escherichia coli; [8]) of the same compound?
A: 47.9%

Q: What about the “% survival at 1 min” value (Escherichia coli; 1.0% w/v lactate pH 3.5, 37° C.) of the same compound?
A: 0.91%

Q: What about the “% survival at 1 min” value (Escherichia coli; [9]) of the same compound?
A: 100%

Q: And the “% survival at 1 min” value (Escherichia coli; [10])?
A: 0.07%

Q: Which results are given for nisin?
A: % survival at 1 min (Escherichia coli; [1]): 9.6%; % survival at 1 min (Escherichia coli; [2]): 0.003%; % survival at 1 min (Escherichia coli; [3]): 4.4%; % survival at 1 min (Escherichia coli; [4]): 70%; % survival at 1 min (Escherichia coli; [5]): 0.0007%; % survival at 1 min (Escherichia coli; [6]): 0.24%; % survival at 1 min (Escherichia coli; [7]): 100%; % survival at 1 min (Escherichia coli; [8]): 0.56%; % survival at 1 min (Escherichia coli; 3.0% w/v acetate pH 3.5, 37° C.): 100%; % survival at 1 min (Escherichia coli; [9]): 14.6%; activity towards gram negative bacteria (Escherichia coli; nisin by itself or in the presence of citrate): ineffective; % survival at 1 min (Escherichia coli; [10]): 0.28%; % survival at 1 min (Escherichia coli; pH 3.5, 20 mM Na acetate buffer, 37° C.): 100%; % survival at 1 min (Escherichia coli; pH 4.0, 20 mM Na acetate buffer, 37° C.): 100%; Nisin NIC (nominal inhibitory concentration minimally required to prevent growth) (E. coli strain ATCC8739; 0% citrate): 3,333 μg/ml; Nisin NIC (nominal inhibitory concentration minimally required to prevent growth) (E. coli strain ATCC8739; 0.1% citrate): 370 µg/mL; Nisin NIC (nominal inhibitory concentration minimally required to prevent growth) (E. coli strain ATCC8739; 0.3% citrate): 123 µg/mL; Nisin NIC (nominal inhibitory concentration minimally required to prevent growth) (E. coli strain ATCC8739; 1.0% citrate): 13.7 µg/mL; Nisin NIC (nominal inhibitory concentration minimally required to prevent growth) (E. coli strain ATCC8739; 3.0% citrate): 0.06 µg/mL
